Laboratory results as given in patent US20240209053A1 (Protagonist Therapeutics, Inc., priority 2021, published 2024).
Numbered stars: 1 amine (or outer) side, 2 acyl side, 3 side chain; on linkers, the order of the positions; unused ones are H or OH. Bridge positions count the residues as written; N and C are the ends. Square brackets hold non-standard residues; d marks the D form. Side chains are listed from the residue outwards. Peptide text beside a SMILES is read from it. * marks the point of attachment. Dip = N[C@H](C(=O)O)C(c1ccccc1)c1ccccc1; Hag = O=C([C@H](CCC=[*:3])N[*:1])[*:2]; Palmitoyl = CCCCCCCCCCCCCCCC(=O)*; β3hF = N[C@H](CC(=O)O)Cc1ccccc1; Isovaleryl = CC(C)CC(=O)*; Ahx = NCCCCCC(=O)O

Tests used:
[1] = target: T1, human ferroportin (SLC40A1) (Homo sapiens, UniProt Q9NP59); experiment: FPN activity assay: internalization/degradation of ferroportin-GFP in stably transfected HEK293 cells (decrease in GFP fluorescence); type: cell-based; conditions: compound incubated at least 18 hours
T1 sequence (Q9NP59 1-571): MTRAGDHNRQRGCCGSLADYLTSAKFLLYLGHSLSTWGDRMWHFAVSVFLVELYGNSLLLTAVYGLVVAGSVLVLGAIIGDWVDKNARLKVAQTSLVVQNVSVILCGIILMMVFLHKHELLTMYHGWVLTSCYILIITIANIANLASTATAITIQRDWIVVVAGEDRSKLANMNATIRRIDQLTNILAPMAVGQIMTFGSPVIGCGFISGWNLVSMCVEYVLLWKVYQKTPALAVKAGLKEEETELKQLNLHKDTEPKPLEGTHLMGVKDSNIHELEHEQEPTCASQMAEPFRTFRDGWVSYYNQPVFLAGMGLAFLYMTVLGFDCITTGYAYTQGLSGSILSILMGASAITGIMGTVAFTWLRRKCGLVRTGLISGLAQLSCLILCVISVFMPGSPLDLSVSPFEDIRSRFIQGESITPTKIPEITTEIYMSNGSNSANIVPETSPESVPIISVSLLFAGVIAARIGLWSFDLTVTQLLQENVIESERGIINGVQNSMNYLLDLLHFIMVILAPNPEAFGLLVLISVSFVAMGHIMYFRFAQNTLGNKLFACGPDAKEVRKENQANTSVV
Experimental: Peptide analogues were tested in vitro for induction of internalization of the human ferroportin protein. Following internalization, the ferroporin protein is degraded. The assay used (FPN activity assay) measures a decrease in fluorescence of the receptor. The cDNA encoding the human ferroportin (SLC40A1) was cloned from a cDNA clone from Origene (NM_014585). The DNA encoding the ferroportin was amplified by PCR using primers also encoding terminal restriction sites for subcloning, but without the termination codon. The ferroportin receptor was subcloned into a mammalian GFP expression vector containing a neomycin (G418) resistance marker in such that the reading frame of the ferroportin was fused in frame with the GFP protein. The fidelity of the DNA encoding the protein was confirmed by DNA sequencing. HEK293 cells were used for transfection of the ferroportin-GFP receptor expression plasmid. The cells were grown according to standard protocol in growth medium and transfected with the plasmids using Lipofectamine (manufacturer's protocol, Invitrogen). The cells stably expressing ferroportin-GFP were selected using G418 in the growth medium (in that only cells that have taken up and incorporated the cDNA expression plasmid survive) and sorted several times on a Cytomation MoFloTM cell sorter to obtain the GFP-positive cells (488 nm/530 nm). The cells were propagated and frozen in aliquots. […] Compound was added to desired final concentration for at least 18 hours in the incubator. […] Compound was added to desired final concentration for at least 18 hours but no more than 24 hours in the incubator. […] The “RI” in RI-Mini-Hepcidin refers to Retro Inverse. A retro inverse peptide is a peptide with a reversed sequence in all D amino acids. An example is that […] becomes […]. The EC50 of these reference compounds for ferroportin internalization/degradation was determined according to the FPN activity assay described above. These peptides served as control standards.

ferroportin = target: T2, ferroportin (Homo sapiens, UniProt Q9NP59); experiment: T47D cell-based ferroportin internalization assay in presence of 0.5% mouse serum albumin (MSA); conditions: T47D cells
T2 sequence (Q9NP59 1-571): T1 sequence (Q9NP59 1-571)
Experimental: The potency of the peptides in causing ferroportin internalization was evaluated in a T47D cell-based assay. […] In this internalization assay, the potency of the test peptides was evaluated in presence of serum albumin which is the main protein component in the blood. T47D cells were maintained in RPMI media (containing required amount of fetal bovine serum) and regularly sub-cultured. In preparation for the assay, the cells were seeded in 96-well plates at a density of 80-100 k cells per well in 100 ul volume and allowed to rest overnight. On the next day, test peptides were first prepared in dilution series (10-point series, starting concentration of ˜5 μM, typically 3-4×fold dilution steps), all with 0.5% mouse serum albumin (MSA purified from mouse serum; Sigma, A3139). The test peptide dilution series were allowed to incubate at room temperature for 30 min. Then the media was aspirated from the 96-well cell plate and test peptide dilution series were added. After 1 hr incubation, the media with test peptides was aspirated out and AF647-conjugated detection peptide was added at fixed concentration of 200 nM. The AF647-conjugated detection peptide was previously verified to bind to ferroportin and cause its internalization. The cells were washed again after a 2 hr incubation in preparation for flow cytometry analysis. The Median Fluorescence Intensity (MFI) of the AF647-positive population was measured (after removing dead cells and non-singlets from the analysis). The MFI values were used to generate a dose-response curve and obtain IC50 potencies for the test peptides. The IC50 potencies were calculated by using 4-parameter non-linear fitting function in Graphpad Prism (Table 6A).

IC50 [1] [nM] | IC50 (ferroportin) [nM] | Compound
10 to 100 | 10 to 100 | CCCCCCCCCCCCCCCC(=O)NCCCCCC(=O)NCCCC[C@H](NC(=O)C[C@H](Cc1ccccc1)NC(=O)[C@@H]1CC=CCC[C@H](NC(=O)CC(C)C)C(=O)N[C@@H]([C@@H](C)O)C(=O)N[C@@H](Cc2c[nH]cn2)C(=O)N[C@@H](C(c2ccccc2)c2ccccc2)C(=O)N2CCC[C@H]2C(=O)N[C@@H](C)C(=O)N[C@@H]([C@@H](C)CC)C(=O)N1)C(=O)N[C@H](CCCCN)C(N)=O [Compd 26]
10 to 100 | 10 to 100 | CCCCCCCCCCCCCCCC(=O)NCCCCCC(=O)NCCCC[C@H](NC(=O)C[C@H](Cc1ccccc1)NC(=O)[C@@H]1CCC=CC[C@H](NC(=O)CC(C)C)C(=O)N[C@@H]([C@@H](C)O)C(=O)N[C@@H](Cc2c[nH]cn2)C(=O)N[C@@H](C(c2ccccc2)c2ccccc2)C(=O)N2CCC[C@H]2C(=O)N[C@@H](C)C(=O)N[C@@H]([C@@H](C)CC)C(=O)N1)C(=O)N[C@H](CCCCN)C(N)=O [Compd 27]
1 to 10 | 1 to 10 | CCCCCCCCCCCCCCCC(=O)NCCCCCC(=O)NCCCC[C@H](NC(=O)C[C@H](Cc1ccccc1)NC(=O)[C@@H]1CCCC=CCCC[C@H](NC(=O)CC(C)C)C(=O)N[C@@H]([C@@H](C)O)C(=O)N[C@@H](Cc2c[nH]cn2)C(=O)N[C@@H](C(c2ccccc2)c2ccccc2)C(=O)N2CCC[C@H]2C(=O)N[C@@H](C)C(=O)N[C@@H]([C@@H](C)CC)C(=O)N1)C(=O)N[C@H](CCCCN)C(N)=O [Compd 28]
1 to 10 | 1 to 10 | CCCCCCCCCCCCCCCC(=O)NCCCCCC(=O)NCCCC[C@H](NC(=O)C[C@H](Cc1ccccc1)NC(=O)[C@@H]1CCC=CCCC[C@H](NC(=O)CC(C)C)C(=O)N[C@@H]([C@@H](C)O)C(=O)N[C@@H](Cc2c[nH]cn2)C(=O)N[C@@H](C(c2ccccc2)c2ccccc2)C(=O)N2CCC[C@H]2C(=O)N[C@@H](C)C(=O)N[C@@H]([C@@H](C)CC)C(=O)N1)C(=O)N[C@H](CCCCN)C(N)=O [Compd 29]
1 to 10 | 1 to 10 | CCCCCCCCCCCCCCCC(=O)NCCCCCC(=O)NCCCC[C@H](NC(=O)C[C@H](Cc1ccccc1)NC(=O)[C@@H]1CC=CCCC[C@H](NC(=O)CC(C)C)C(=O)N[C@@H]([C@@H](C)O)C(=O)N[C@@H](Cc2c[nH]cn2)C(=O)N[C@@H](C(c2ccccc2)c2ccccc2)C(=O)N2CCC[C@H]2C(=O)N[C@@H](C)C(=O)N[C@@H]([C@@H](C)CC)C(=O)N1)C(=O)N[C@H](CCCCN)C(N)=O [Compd 30]
10 to 100 | 10 to 100 | CCCCCCCCCCCCCCCC(=O)NCCCCCC(=O)NCCCC[C@H](NC(=O)C[C@H](Cc1ccccc1)NC(=O)[C@@H]1CCCC=CCC[C@H](NC(=O)CC(C)C)C(=O)N[C@@H]([C@@H](C)O)C(=O)N[C@@H](Cc2c[nH]cn2)C(=O)N[C@@H](C(c2ccccc2)c2ccccc2)C(=O)N2CCC[C@H]2C(=O)N[C@@H](C)C(=O)N[C@@H]([C@@H](C)CC)C(=O)N1)C(=O)N[C@H](CCCCN)C(N)=O [Compd 31]
1 to 10 | 1 to 10 | CCCCCCCCCCCCCCCC(=O)NCCCCCC(=O)NCCCC[C@@H]1NC(=O)[C@@H]2CCCN2C(=O)[C@H](C(c2ccccc2)c2ccccc2)NC(=O)[C@H](Cc2c[nH]cn2)NC(=O)[C@H]([C@@H](C)O)NC(=O)[C@@H](NC(=O)CC(C)C)CCCC=CCCC[C@@H](C(=O)N[C@H](CC(=O)N[C@H](CCCCN)C(N)=O)Cc2ccccc2)NC(=O)[C@H]([C@@H](C)CC)NC1=O [Compd 33]
1 to 10 | 1 to 10 | CCCCCCCCCCCCCCCC(=O)NCCCCCC(=O)NCCCC[C@@H]1NC(=O)[C@H](C)NC(=O)[C@@H]2CCCN2C(=O)[C@H](C(c2ccccc2)c2ccccc2)NC(=O)[C@H](Cc2c[nH]cn2)NC(=O)[C@H]([C@@H](C)O)NC(=O)[C@@H](NC(=O)CC(C)C)CCCC=CCCC[C@@H](C(=O)N[C@H](CC(=O)N[C@H](CCCCN)C(N)=O)Cc2ccccc2)NC1=O [Compd 34]
10 to 100 | 1 to 10 | CCCCCCCCCCCCCCCC(=O)NCCCCCC(=O)NCCCC[C@@H]1NC(=O)[C@@H]2CCCN2C(=O)[C@H](C(c2ccccc2)c2ccccc2)NC(=O)[C@H](Cc2c[nH]cn2)NC(=O)[C@H]([C@@H](C)O)NC(=O)[C@@H](NC(=O)CC(C)C)CCC=CCC[C@@H](C(=O)N[C@H](CC(=O)N[C@H](CCCCN)C(N)=O)Cc2ccccc2)NC(=O)[C@H]([C@@H](C)CC)NC1=O [Compd 36]
100 to 500 | 100 to 500 | CCCCCCCCCCCCCCCC(=O)NCCCCCC(=O)NCCCC[C@H](NC(=O)C[C@H](Cc1ccccc1)NC(=O)[C@@H]1CCC=CCC[C@H](NC(=O)CC(C)C)C(=O)N[C@@H](C)C(=O)N[C@@H](Cc2c[nH]cn2)C(=O)N[C@@H](C(c2ccccc2)c2ccccc2)C(=O)N2CCC[C@H]2C(=O)N[C@@H](C)C(=O)N[C@@H]([C@@H](C)CC)C(=O)N1)C(=O)N[C@H](CCCCN)C(N)=O [Compd 41] (Isovaleryl-[Hag]AH[Dip]PAI[Hag][β3hF]K([Ahx-Palmitoyl])[dK]-NH2; staple 1-8)
100 to 500 | 100 to 500 | CCCCCCCCCCCCCCCC(=O)NCCCCCC(=O)NCCCC[C@H](NC(=O)C[C@H](Cc1ccccc1)NC(=O)[C@@H]1CCC=CCC[C@H](NC(=O)CC(C)C)C(=O)N[C@@H]([C@@H](C)O)C(=O)N[C@@H](C)C(=O)N[C@@H](C(c2ccccc2)c2ccccc2)C(=O)N2CCC[C@H]2C(=O)N[C@@H](C)C(=O)N[C@@H]([C@@H](C)CC)C(=O)N1)C(=O)N[C@H](CCCCN)C(N)=O [Compd 42] (Isovaleryl-[Hag]TA[Dip]PAI[Hag][β3hF]K([Ahx-Palmitoyl])[dK]-NH2; staple 1-8)
10 to 100 | 10 to 100 | CCCCCCCCCCCCCCCC(=O)NCCCCCC(=O)NCCCC[C@H](NC(=O)C[C@H](Cc1ccccc1)NC(=O)[C@@H]1CCC=CCC[C@H](NC(=O)CC(C)C)C(=O)N[C@@H]([C@@H](C)O)C(=O)N[C@@H](Cc2c[nH]cn2)C(=O)N[C@@H](C(c2ccccc2)c2ccccc2)C(=O)N2CCC[C@H]2C(=O)N[C@@H](C)C(=O)N[C@@H](C)C(=O)N1)C(=O)N[C@H](CCCCN)C(N)=O [Compd 45] (Isovaleryl-[Hag]TH[Dip]PAA[Hag][β3hF]K([Ahx-Palmitoyl])[dK]-NH2; staple 1-8)
100 to 500 | 100 to 500 | CCCCCCCCCCCCCCCC(=O)NCCCCCC(=O)NCCCC[C@H](NC(=O)[C@H](C)NC(=O)[C@@H]1CCC=CCC[C@H](NC(=O)CC(C)C)C(=O)N[C@@H]([C@@H](C)O)C(=O)N[C@@H](Cc2c[nH]cn2)C(=O)N[C@@H](C(c2ccccc2)c2ccccc2)C(=O)N2CCC[C@H]2C(=O)N[C@@H](C)C(=O)N[C@@H]([C@@H](C)CC)C(=O)N1)C(=O)N[C@H](CCCCN)C(N)=O [Compd 46] (Isovaleryl-[Hag]TH[Dip]PAI[Hag]AK([Ahx-Palmitoyl])[dK]-NH2; staple 1-8)
10 to 100 | 10 to 100 | CC[C@H](C)[C@@H]1NC(=O)[C@H](C)NC(=O)[C@@H]2CCCN2C(=O)[C@H](C(c2ccccc2)c2ccccc2)NC(=O)[C@H](Cc2c[nH]cn2)NC(=O)[C@H]([C@@H](C)O)NC(=O)[C@@H](NC(=O)CC(C)C)CCC=CCC[C@@H](C(=O)N[C@H](CC(=O)N[C@@H](C)C(=O)N[C@H](CCCCN)C(N)=O)Cc2ccccc2)NC1=O [Compd 47] (Isovaleryl-[Hag]TH[Dip]PAI[Hag][β3hF]A[dK]-NH2; staple 1-8)
